These results are taken from ChEMBL document CHEMBL5728630, “Aryl, heteroaryl, and heterocyclic pharmaceutical compounds for treatment of medical disorders” (2021).

The experiment concerns the target Complement factor D (Homo sapiens, UniProt P00746). In words: Factor D Assay: Human Factor D (purified from human serum, Complement Technology, Inc.) at 80 nM final concentration is incubated with test compound at various concentrations for 5 min at room temperature in 50 mM Tris, 1M NaCl, pH 7.5. A synthetic substrate Z-L-Lys-SBz and DTNB (Ellman's reagent) are added to final concentrations of 100 μM each. Absorbance at 405 nm (A405) is recorded at 30 second intervals for 30 min using a microplate spectrophotometer. IC50 values are calculated by nonlinear regression of complement Factor D reaction rates as a function of test compound concentration.

Complement factor D, sequence (P00746 whole entry): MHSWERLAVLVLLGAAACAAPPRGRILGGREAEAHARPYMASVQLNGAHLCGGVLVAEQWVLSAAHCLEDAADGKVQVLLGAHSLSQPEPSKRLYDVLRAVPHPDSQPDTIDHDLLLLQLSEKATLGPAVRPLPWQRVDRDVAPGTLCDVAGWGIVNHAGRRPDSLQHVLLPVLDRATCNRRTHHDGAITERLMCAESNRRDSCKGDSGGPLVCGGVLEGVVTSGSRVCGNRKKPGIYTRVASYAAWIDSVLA

A word on the IC50: it is the concentration needed to halve the response being measured. Regarding `CC(=O)c1nn(CC(=O)N2[C@H](C(=O)NCc3ccccn3)C[C@@]3(C)C[C@@H]23)c2c(C)cc(-c3cnc(C)nc3)cc12`, the half-inhibitory concentration (IC50) is less than 1000 nM. In the case of `CC(=O)c1nn(CC(=O)N2[C@H](C(=O)NCc3cncnc3)C[C@@]3(C)C[C@@H]23)c2c(C)cc(-c3cnc(C)nc3)cc12`, the 50% inhibitory concentration (IC50) is less than 1000 nM. In the case of `CC(=O)c1nn(CC(=O)N2[C@H](C(=O)Nc3nc(Br)ccc3C)C[C@@]3(CCF)C[C@@H]23)c2cnc(-c3cnc(C)nc3)cc12` it was less than 1000 nM. As to `Cc1ncc(-c2ccc3c(c2)c(C(N)=O)nn3CC(=O)N2[C@H](C(=O)Nc3nc(Br)ccc3C)C[C@@]3(C)C[C@@H]23)cn1`, the IC50 was less than 1000 nM. On to `Cc1ncc(-c2cc(C)c3c(c2)c(I)nn3CC(=O)N2[C@H](C(=O)Nc3nc(Br)ccc3C)C[C@@]3(C)C[C@@H]23)cn1`, for which the concentration for half-maximal inhibition (IC50) was less than 1000 nM. Under `CC(=O)c1nn(CC(=O)N2[C@H](C(=O)Nc3nc(Br)ccc3C)C[C@@]3(CNCc4ccccc4F)C[C@@H]23)c2c(C)cc(-c3cnc(C)nc3)cc12` stands less than 1000 nM; under `CC(=O)c1nn(CC(=O)N2[C@H](C(=O)Nc3nc(Br)ccc3C)C[C@@]3(C4COC(C)(C)O4)C[C@@H]23)c2cnc(-c3cnc(C)nc3)cc12` (stereo partly specified), less than 1000 nM; under `COCc1ccc(Br)nc1NC(=O)[C@@H]1C[C@@]2(CNC(C)=O)C[C@H]2N1C(=O)Cn1nc(C(C)=O)c2cc(-c3cnc(C)nc3)ccc21`, less than 1000 nM. `CCCNC(=O)[C@@H]1C[C@@]2(C)C[C@H]2N1C(=O)Cn1nc(C(C)=O)c2cc(-c3cnc(C)nc3)cc(C)c21`: the IC50 is less than 1000 nM.

On to `CC(=O)c1nn(CC(=O)N2[C@H](C(=O)Nc3nc(Br)ccc3C)C[C@@]3(CC(F)F)C[C@@H]23)c2cnc(-c3cnc(C)nc3)cc12`, for which the half-inhibitory concentration (IC50) is less than 1000 nM. Regarding `CC(=O)c1nn(CC(=O)N2[C@H](C(=O)N[C@H](C)[C@H]3CC3(Cl)Cl)C[C@@]3(C)C[C@@H]23)c2cnc(-c3cnc(C)nc3)cc12`, the IC50 is less than 1000 nM. Take `CC(=O)c1nn(CC(=O)N2[C@H]3C[C@@]3(C)C[C@H]2C(=O)Nc2nc(Br)ccc2C)c2ccc(-c3cnc(C)nc3)cc12`: the half-maximal inhibitory concentration (IC50) is less than 1000 nM. For `COCc1ccc(Br)nc1NC(=O)[C@@H]1C[C@@]2(C)C[C@H]2N1C(=O)Cn1nc(C(C)=O)c2cc(-c3cnc(C)nc3)cc(COC)c21`, the IC50 was less than 1000 nM. For `Cc1ncc(-c2cc(C)c3c(c2)c(C(=O)N2CC4(CCC4)C2)nn3CC(=O)N2[C@H](C(=O)Nc3nc(Br)ccc3C)C[C@@]3(C)C[C@@H]23)cn1`, the IC50 is greater than 10000 nM. Take `Cc1ncc(-c2cc3c(C(C)O)nn(CC(=O)N4[C@H](C(=O)Nc5nc(Br)c(F)cc5C)C[C@@]5(C)C[C@@H]45)c3c(C)n2)cn1` (stereo partly specified): the half-maximal inhibitory concentration (IC50) was less than 1000 nM. In the case of `CC(=O)c1nn(CC(=O)N2[C@H](C(=O)Nc3nc(Br)ccc3C)C[C@@]3(C)C[C@@H]23)c2c(C(C)F)cc(-c3cnc(C)nc3)cc12` (stereo partly specified), the half-inhibitory concentration (IC50) is less than 1000 nM. In the case of `CC(=O)C[C@@]12C[C@@H](C(=O)Nc3nc(Br)ccc3C)N(C(=O)Cn3nc(C(C)=O)c4cc(-c5cnc(C)nc5)ncc43)[C@@H]1C2`, the half-inhibitory concentration (IC50) is less than 1000 nM. For `CC(=O)c1nn(CC(=O)N2[C@H](C(=O)Nc3nc(Br)ccc3C)C[C@@]3(C)C[C@@H]23)c2c(C(F)(F)F)nc(-c3cnc(C)nc3)cc12`, the 50% inhibitory concentration (IC50) was less than 1000 nM. Under `CC(=O)c1nn(CC(=O)N2[C@@H](C(=O)Nc3nc(Br)ccc3C)C[C@@]3(CC(C)C)C[C@@H]23)c2cnc(-c3cnc(C)nc3)cc12` stands greater than 10000 nM; under `CC(=O)c1nn(CC(=O)N2[C@H](C(=O)Nc3nc(Br)ccc3C)C[C@@]3(CNCC(F)(F)F)C[C@@H]23)c2c(C)cc(-c3cnc(C)nc3)cc12`, less than 1000 nM.

As for `CCC[C@@]12C[C@@H](C(=O)Nc3nc(Br)ccc3C)N(C(=O)Cn3nc(C(C)=O)c4cc(-c5cnc(C)nc5)ncc43)[C@@H]1C2`, the IC50 is less than 1000 nM. With `CC(=O)c1nn(CC(=O)N2[C@H](C(=O)Nc3nc(C(F)(F)F)ccc3C)C[C@@]3(C)C[C@@H]23)c2cnc(-c3cnc(C)nc3)cc12`, the IC50 is less than 1000 nM. In the case of `CC(=O)c1nn(CC(=O)N2[C@H](C(=O)NCc3ccccc3F)C[C@@]3(C)C[C@@H]23)c2c(C)cc(-c3cnc(C)nc3)cc12`, the IC50 was less than 1000 nM. With `CC(=O)c1nn(CC(=O)N2[C@H](C(=O)NCc3ccc(C)cc3)C[C@@]3(C)C[C@@H]23)c2c(C)cc(-c3cnc(C)nc3)cc12`, the IC50 was less than 1000 nM. Under `COc1cccc(CNC(=O)[C@@H]2C[C@@]3(C)C[C@H]3N2C(=O)Cn2nc(C(C)=O)c3cc(-c4cnc(C)nc4)cc(C)c32)c1` stands less than 1000 nM; under `CC(=O)c1nn(CC(=O)N2[C@H](C(=O)Nc3nc(Br)ccc3C)C[C@@]3(CNC(=O)C4CCCC4(F)F)C[C@@H]23)c2ccc(-c3cnc(C)nc3)cc12` (stereo partly specified), less than 1000 nM; under `CCCCCNC(=O)[C@@H]1C[C@@]2(C)C[C@H]2N1C(=O)Cn1nc(C(C)=O)c2cc(-c3cnc(C)nc3)ccc21`, less than 1000 nM. As to `Cc1ncc(-c2cc3c(C(N)=O)nn(CC(=O)N4[C@H](C(=O)Nc5nc(Br)c(F)cc5C)C[C@@]5(C)C[C@@H]45)c3cn2)cn1`, the IC50 is less than 1000 nM. In the case of `CC(=O)c1nn(CC(=O)N2[C@H](C(=O)NCc3ccccc3)C[C@@]3(C)C[C@@H]23)c2ccc(-c3cnc(C)nc3)cc12`, the IC50 was less than 1000 nM.

For `COc1ccccc1CNC(=O)[C@@H]1C[C@@]2(C)C[C@H]2N1C(=O)Cn1nc(C(C)=O)c2cc(-c3cnc(C)nc3)cc(C)c21`, the IC50 is less than 1000 nM.

On to `CC(=O)c1nn(CC(=O)N2[C@H](C(=O)Nc3nc(Br)ccc3CN3CCC(C)(F)CC3)C[C@@]3(C)C[C@@H]23)c2cnc(-c3cnc(C)nc3)cc12`, for which the IC50 is less than 1000 nM. In the case of `CC(=O)c1nn(CC(=O)N2[C@H](C(=O)Nc3nc(Br)ccc3C)C[C@@]3(CN4CC(F)(F)C4)C[C@@H]23)c2cnc(-c3cnc(C)nc3)cc12` it was less than 1000 nM. With `CC(=O)c1nn(CC(=O)N2[C@H](C(=O)NCc3cccc(Cl)c3F)C[C@@]3(C)C[C@@H]23)c2c(C)cc(-c3cnc(C)nc3)cc12`, the IC50 was less than 1000 nM.

For `C=CCNC(=O)c1nn(CC(=O)N2[C@H](C(=O)Nc3nc(Br)ccc3C)C[C@@]3(C)C[C@@H]23)c2ccc(-c3cnc(C)nc3)cc12`, the IC50 was less than 1000 nM. With `CC(=O)c1nn(CC(=O)N2[C@H](C(=O)Nc3nc(Br)ccc3C)C[C@@]3(CN4CCC4)C[C@@H]23)c2c(C)nc(-c3cnc(C)nc3)cc12`, the 50% inhibitory concentration (IC50) is less than 1000 nM.

Consider `CC(=O)c1cn(CC(=O)N2[C@H](C(=O)Nc3nc(Br)ccc3C)C[C@@]3(C)C[C@@H]23)c2cnc(-c3cnc(C)nc3)cc12`, for which the IC50 was less than 1000 nM.

For the compound `CC(=O)c1nn(CC(=O)N2[C@H](C(=O)Nc3nc(Br)ccc3C)C[C@@]3(C)C[C@@H]23)c2c(C)cc(-c3cnc(O)nc3)cc12`, the IC50 is less than 1000 nM. On to `CC(=O)c1nn(CC(=O)N2[C@H](C(=O)Nc3cc(C(=O)O)cc(Br)n3)C[C@@]3(C)C[C@@H]23)c2c(CN)cc(-c3cnc(C)nc3)cc12`, for which the IC50 was less than 1000 nM. For `CC(=O)c1nn(CC(=O)N2[C@H](C(=O)NCC(C)(C)C)C[C@@]3(C)C[C@@H]23)c2ccc(-c3cnc(C)nc3)cc12`, the 50% inhibitory concentration (IC50) is less than 1000 nM. Take `CC(=O)c1nn(CC(=O)N2[C@H](C(=O)NCc3ccccc3C)C[C@@]3(C)C[C@@H]23)c2c(C)cc(-c3cnc(C)nc3)cc12`: the concentration for half-maximal inhibition (IC50) is less than 1000 nM.

On to `CC(=O)c1nn(CC(=O)N2[C@H](C(=O)Nc3nc(OC(F)(F)F)ccc3C)C[C@@]3(C)C[C@@H]23)c2c(C)nc(-c3cnc(C)nc3)cc12`, for which the IC50 is less than 1000 nM. For `CC(=O)c1nn(CC(=O)N2[C@H](C(=O)Nc3nc(Br)ccc3C)C[C@@]3(C#N)C[C@@H]23)c2cnc(-c3cnc(C)nc3)cc12`, the half-inhibitory concentration (IC50) is less than 1000 nM.

Regarding `CC(=O)c1nn(CC(=O)N2[C@H]3C[C@@]3(CF)C[C@H]2C(=O)Nc2nc(Br)ccc2C)c2cnc(-c3cnc(C)nc3)cc12`, the IC50 was less than 1000 nM.

Consider `CNC(=O)c1nn(CC(=O)N2[C@H](C(=O)Nc3nc(Br)ccc3C)C[C@@]3(C)C[C@@H]23)c2ccc(-c3cnc(C)nc3)cc12`, for which the IC50 was less than 1000 nM. Turning to `C#CCNC(=O)c1nn(CC(=O)N2[C@H](C(=O)Nc3nc(Br)ccc3C)C[C@@]3(C)C[C@@H]23)c2ccc(-c3cnc(C)nc3)cc12`, the IC50 was less than 1000 nM. With `CC(=O)c1nn(CC(=O)N2[C@H](C(=O)Nc3nc(Br)ccc3C(O)CO)C[C@@]3(C)C[C@@H]23)c2cnc(-c3cnc(C)nc3)cc12` (stereo partly specified), the IC50 was less than 1000 nM. For the compound `CCNC(=O)[C@@H]1C[C@@]2(C)C[C@H]2N1C(=O)Cn1nc(C(C)=O)c2cc(-c3cnc(C)nc3)cc(C)c21`, the IC50 was less than 1000 nM.

`COC(=O)Cc1ccc(Br)nc1NC(=O)[C@@H]1C[C@@H](F)CN1C(=O)Cn1nc(C(C)=O)c2cc(-c3cnc(C)nc3)ccc21`: the IC50 was less than 1000 nM. For `CC(=O)c1nn(CC(=O)N2[C@H](C(=O)Nc3nc(Br)ccc3C)C[C@@]3(C)C[C@@H]23)c2c(C)cc(-c3cnc(C4(F)COC4)nc3)cc12`, the half-maximal inhibitory concentration (IC50) was less than 1000 nM. For the compound `C#CC(C)(C)NC(=O)c1nn(CC(=O)N2[C@H](C(=O)Nc3nc(Br)ccc3C)C[C@@]3(C)C[C@@H]23)c2ccc(-c3cnc(C)nc3)cc12`, the IC50 is greater than 10000 nM.

On to `COc1ncc(-c2cc3c(C(C)=O)nn(CC(=O)N4[C@H](C(=O)Nc5nc(Br)ccc5C)C[C@@]5(C)C[C@@H]45)c3c(C)n2)cn1`, for which the half-inhibitory concentration (IC50) is less than 1000 nM.

For `CC(=O)c1nn(CC(=O)N2[C@H](C(=O)NCc3ccccc3)C[C@@]3(C)C[C@@H]23)c2c(C)cc(-c3cnc(C)nc3)cc12`, the half-maximal inhibitory concentration (IC50) was less than 1000 nM. In the case of `CC(=O)c1nn(CC(=O)N2[C@H](C(=O)Nc3nc(Br)ccc3C3COC(=O)O3)C[C@@]3(C)C[C@@H]23)c2cnc(-c3cnc(C)nc3)cc12` (stereo partly specified), the 50% inhibitory concentration (IC50) is less than 1000 nM. Turning to `CCCCCNC(=O)[C@@H]1C[C@@]2(C)C[C@H]2N1C(=O)Cn1nc(C(C)=O)c2cc(-c3cnc(C)nc3)cc(C)c21`, the half-maximal inhibitory concentration (IC50) was less than 1000 nM. In the case of `CC(=O)c1nn(CC(=O)N2[C@@H](C(=O)Nc3nc(Br)ccc3C)C[C@]3(C)C[C@H]23)c2ccc(-c3cnc(C)nc3)cc12` it was greater than 10000 nM; in that of `CC[C@@]12C[C@@H](C(=O)Nc3nc(Br)ccc3C)N(C(=O)Cn3nc(C(C)=O)c4cc(-c5cnc(C)nc5)ncc43)[C@@H]1C2`, less than 1000 nM.
